Test system: Sphaerotheca fuliginea
Assay: Protective activity against mildew of cucumbers caused by Sphaerotheca fuliginea
Format: in vivo
Details: inoculated 20 hours after spraying, evaluated after 7 days
Procedure: Evaluation was carried out by determining the infected leaf areas in percent. These percentages were converted into efficacies. The efficacy (W) was calculated as follows using Abbot's formula:
[formula] • α corresponds to the fungal infection of the treated plants in % and • β corresponds to the fungal infection of the untreated (control) plants in %
An efficacy of 0 means that the infection level of the treated plants corresponds to that of the untreated control plants; an efficacy of 100 means that the treated plants were not infected.
20 hours after the spray coating had dried on, the plants were inoculated with an aqueous spore suspension of mildew of cucumbers (Sphaerotheca fuliginea). The plants were then cultivated in a greenhouse at 20-24° C. and 60-80% relative atmospheric humidity for 7 days. The extent of mildew development was then determined visually in % infection of the cotyledon area.
The visually determined values for the percentage of infected leaf areas were converted into efficacies in % of the untreated control. An efficacy of 0 means the same degree of infection as the untreated control, an efficacy of 100 means 0% infection.

[1] = 0.015 ppm active compound in the spray liquor
[2] = 0.06 ppm active compound in the spray liquor
[3] = 0.25 ppm active compound in the spray liquor
[4] = 1 ppm active compound in the spray liquor

SMILES | Efficacy in % of the untreated control [1] | Efficacy in % of the untreated control [2] | Efficacy in % of the untreated control [3] | Efficacy in % of the untreated control [4] | Efficacy in % of the untreated control (4 ppm active compound in the spray liquor)
OC(Cc1ccccc1Cl)(Cn1nc[nH]c1=S)C1(Cl)CC1 (stereo not drawn) [Compound I, 2-[2-(1-chlorocyclopropyl)-3-(2-chlorophenyl)-2-hydroxypropyl]-2,4-dihydro-[1,2,4]-triazole-3-thione] | 0% | 0% | 5% | – | –
N#Cc1nn(-c2c(Cl)cc(C(F)(F)F)cc2Cl)c(N)c1[S+]([O-])C(F)(F)F (stereo not drawn) [Compound II, fipronil] | 0% | 0% | 0% | 0% | –
CCOP(=S)(OCC)Oc1nc(Cl)c(Cl)cc1Cl [Compound III, chlorpyrifos] | 0% | 0% | 0% | – | –
CN1COCN(Cc2cnc(Cl)s2)/C1=N\[N+](=O)[O-] [Compound IV, thiamethoxam] | 0% | 0% | 0% | 0% | 0%
